What was measured:
SART stressed mouse [1] = assay: Test for analgesic effect (1): SART stressed mouse, modified Randall-Selitto tail pressure method; assay type: in vivo, mouse (ddY strain)
Procedure: Loading of SART (Specific Alternation of Rhythm in Temperature) stress or repetitive cold stress was conducted in accordance with a method of Kita, et al. (Nippon Yakurigaku Zasshi, Vol. 71, pages 195 to 210, 1975). In a constant-temperature vessel for breeding, a breeding environment temperature for male mice of ddY strain was alternately changed at 4° C. and 24° C. every one hour from 10 a.m. until 5 p.m. and kept at 4° C. from 5 p.m. to 10 a.m. of the next morning. Breeding was conducted for 5 days where water and feed were freely taken by the mice so as to load a repetitive cold stress and, after that, the mice were subjected to the test. Before and after 30 minutes from administration of the test substance, analgesic threshold value was measured by a modified Randall-Selitto method (Tail pressure method; Nippon Yakurigaku Zasshi, Vol. 72, pages 573 to 584, 1976). Thus, Using a Randall-Selitto analgesic effect measuring device where a pressing piece was modified for mouse tail, a pressure stimulation was applied at the rate of 16 g/second to the site which was 1.5 cm to the front end from tail root of the mouse and pressurized weight (g) showing an escaping or squeaking reaction was measured and adopted as a pain threshold value. […] A value (analgesic coefficient) where the pain threshold of the test substance administration group was divided by the pain threshold of the SART control group was calculated and the analgesic effect of the test substance was confirmed. Thus, when the test substance had no effect at all, said value was 1.0 and, as the effect became stronger, the value of the analgesic coefficient increased as 1.1, 1.2 and 1.3. Significant difference between the two groups was determined by a statistic processing of the pain threshold values and the analgesic coefficient was calculated as a mean value of the pain threshold values.
As to the test animals, male mice of ddY strain of four weeks age (one group comprised ten mice) were used. The compound of the present invention as a test substance was administered at a dose of 25 ng or 50 ng per mouse into the lateral ventricle whereupon its analgesic effect was measured.
Further, when the Compound 1 of the present invention was intraperitoneally administered (100 μg/kg), the pain threshold value in the SART control group was […] while, in the test substance administration group, it was 97.8 g (analgesic coefficient: 1.24) whereby a significant improving effect for hyperalgesia was noted.

Chung model rat = assay: Test for analgesic effect (2)/(3): Chung model rat, von Frey allodynia measurement; assay type: in vivo, rat (Wistar strain); conditions: for 50% reaction threshold value, Test substance administration group, Before admin.: baseline before intraperitoneal 400 μg/kg; for 50% reaction threshold value, Test substance administration group, After admin. for 30 minutes: intraperitoneal 400 μg/kg single dose, * P<0.05 Dunnett
Procedure: A test for analgesic effect was conducted using a Chung model rat which is a neuropathic pain model. As to the test animal, male rats of Wistar strain of nine weeks age were used and model rats were prepared in accordance with the method of Kim and Chung (Pain, vol. 50, pages 355 to 363, 1992). Thus, under anesthetization with pentobarbital (40 mg/kg, intraperitoneal administration), rat L5 spinal nerve was exposed and L5 dorsal root ganglion periphery side was strongly ligated using 5-0 silk yarn. The animals were placed in a transparent acrylate cage whose bottom was made of wire net, a 50% reaction threshold value was calculated by an up-down method using a von Frey filament (manufactured by North Coast Medical Inc.) according to the methods of Chaplan, et al. (J. Neurosci. Method, vol. 53, pages 55 to 63, 1994) and by Lee, et al. (J. Neurophysiol., vol. 81, pages 2226 to 2233, 1999) and measurement of allodynia was conducted. Before injury of spinal nerve, the 50% reaction threshold value was measured twice and the animals where the threshold value was outside the standard were excluded from the operation for spinal nerve injury. […] After 30 minutes from the administration of the test substance, allodynia was measured to calculate a 50% reaction threshold value. With regard to a significance test, Paired t-test was conducted for comparison between before and after the nerve injury and Dunnett's multiple comparison test was used for comparison among multiple groups of the nerve injury control group and the test substance administration group. […] After 30 minutes from administration of the test substance, measurement of allodynia was conducted to calculate the 50% reaction threshold value.

mice [2] = assay: Test for analgesic effect (4): acetic acid writhing test; assay type: in vivo, mouse (ddY strain); conditions: writhing numbers during 10 minutes
Procedure: The compounds of the present invention were orally administered to mice and a test for an analgesic effect was carried out by means of an acetic acid writhing test. As to the test animals, male mice of ddY strain of four weeks age were subjected to a preliminary breeding and they were used where one group comprised ten mice. Each of the compound of the present invention as a test substance was orally administered (10 mg/kg, 100 mg/kg) in a single dose while, to a control group, distilled water (water for injection) was administered similarly. After 25 minutes from the administration of the test substance, a 0.7% acetic acid/physiological saline was intraperitoneally administered at the dose of 10 mL/kg. From 5 minutes thereafter, writhing numbers during 10 minutes were counted and a suppressive rate for each mouse was calculated according to the following formula. Suppressive Rate(%)=[(Mean writhing numbers of the control group)−(Writhing numbers of each mouse)]÷[Mean writhing numbers of the control group]×100

rats [3] = assay: Formalin pain test for rats, second phase; assay type: in vivo, rat; conditions: oral administration of 100 mg/kg
rats [4] = assay: Hyperalgesia in osteoarthritis model induced by monoiodoacetic acid into joints of rats; assay type: in vivo, rat; conditions: oral administration of 1 mg/kg
mice [5] = assay: Single dose toxicity test by intraperitoneal administration to mice; assay type: in vivo, mouse (ddY strain); conditions: intraperitoneal 250, 500 and 1,000 mg/kg
Procedure: A single dose toxicity test by intraperitoneal administration of the compounds of the present invention to mice was carried out. Male mice of ddY strain of four weeks age were made into groups of five mice so as to make mean body weight in each group nearly the same. The Compound 1 of the present invention as a test substance was intraperitoneally administered at the doses of 250 mg/kg, 500 mg/kg and 1,000 mg/kg.

SART stressed mouse [6] = assay: Test for analgesic effect (1): SART stressed mouse, modified Randall-Selitto tail pressure method; assay type: in vivo, mouse (ddY strain); conditions: oral administration, peak after 30 minutes
[7] = 25 ng per mouse into the lateral ventricle, 30 minutes after administration, pain threshold of test group / SART control group
[8] = 50 ng per mouse into the lateral ventricle, 30 minutes after administration, pain threshold of test group / SART control group
[9] = 30 minutes after administration

SMILES: C=CC(=O)N[C@@H](Cc1cncn1C)C(=O)O [Compound 1, N(α)-acryloyl-N(π)-methyl-L-histidine]
- Analgesic coefficient (SART stressed mouse [1]; [7]): 1.33
- Analgesic coefficient (SART stressed mouse [1]; intraperitoneal 100 μg/kg): 1.24
- pain threshold value (SART stressed mouse [1]; intraperitoneal 100 μg/kg, test substance administration group): 97.8 g
- 50% reaction threshold value (Chung model rat; intraperitoneal 100 μg/kg single dose, 30 minutes after administration): 9.60 g
- anti-allodynia action (in words) (Chung model rat; oral administration 10 mg/kg, peak after 30 minutes): significant anti-allodynia action
- ED50 value determined from the improving rate at the peak of the action (Chung model rat; oral administration, peak after 30 minutes): 2.4 mg/kg
- Suppressive Rate (mice [2]; oral 10 mg/kg single dose): 33.1%
- Suppressive Rate (mice [2]; oral 100 mg/kg single dose): 53.8%
- analgesic action against pain reaction in the second phase (in words) (rats [3]): significant analgesic action
- analgesic effect on hyperalgesia (in words) (rats [4]): significant analgesic effect
- changes in the body weight compared with the control group (mice [5]): no significant difference
- abnormal observation during the observation period (mice [5]; 14 days): no abnormal observation was noted
- death (mice [5]; 14 days): no death case was noted
- autopsied organs and tissues observed by naked eye (mice [5]; after 14 days): no abnormal case was found at all
- analgesic action (in words) (SART stressed mouse [6]; 3 and 10 mg/kg): significant analgesic action
- ED50 value determined from the improving rate at peak of action (SART stressed mouse [6]): 2.7 mg/kg

SMILES: C=CC(=O)N[C@@H](Cc1cncn1CC)C(=O)O [Compound 2, N(α)-acryloyl-N(π)-ethyl-L-histidine]
- Analgesic coefficient (SART stressed mouse [1]; [8]): 1.18
- 50% reaction threshold value, Test substance administration group, Before admin. (Chung model rat): 2.69 ± 0.39 g
- 50% reaction threshold value, Test substance administration group, After admin. for 30 minutes (Chung model rat; [9]): 5.98 ± 0.52* g
- Suppressive Rate (mice [2]; oral 100 mg/kg single dose): 27.6%

SMILES: CC=CC(=O)N[C@@H](Cc1cncn1C)C(=O)O [Compound 3, N(α)-crotonoyl-N(π)-methyl-L-histidine]
- Analgesic coefficient (SART stressed mouse [1]; [7]): 1.23

SMILES: CC=CC(=O)N[C@@H](Cc1cncn1CC)C(=O)O [Compound 4, N(α)-crotonoyl-N(π)-ethyl-L-histidine]
- Suppressive Rate (mice [2]; oral 10 mg/kg single dose): 32.9%

SMILES: CC(C)=CC(=O)N[C@@H](Cc1cncn1C)C(=O)O [Compound 5, N(α)-3-methylcrotonoyl-N(π)-methyl-L-histidine]
- Suppressive Rate (mice [2]; oral 10 mg/kg single dose): 17.8%

SMILES: Cn1cncc1C[C@H](NC(=O)C=Cc1ccccc1)C(=O)O [Compound 6, N(α)-3-phenylpropenoyl-N(π)-methyl-L-histidine]
- Analgesic coefficient (SART stressed mouse [1]; [7]): 1.17
- 50% reaction threshold value, Test substance administration group, Before admin. (Chung model rat): 2.69 ± 0.33 g
- 50% reaction threshold value, Test substance administration group, After admin. for 30 minutes (Chung model rat; [9]): 6.43 ± 1.52* g
- Suppressive Rate (mice [2]; oral 100 mg/kg single dose): 23.5%

SMILES: CC=C(C)C(=O)N[C@@H](Cc1cncn1C)C(=O)O [Compound 7, N(α)-2-methyl-2-butenoyl-N(π)-methyl-L-histidine]
- Analgesic coefficient (SART stressed mouse [1]; [7]): 1.31
- 50% reaction threshold value, Test substance administration group, Before admin. (Chung model rat): 2.71 ± 0.24 g
- 50% reaction threshold value, Test substance administration group, After admin. for 30 minutes (Chung model rat; [9]): 9.88 ± 1.59* g
- Suppressive Rate (mice [2]; oral 100 mg/kg single dose): 36.1%

SMILES: CCn1cncc1C[C@H](NC(=O)C=C(C)C)C(=O)O [Compound 9, N(α)-3-methylcrotonoyl-N(π)-ethyl-L-histidine]
- Suppressive Rate (mice [2]; oral 100 mg/kg single dose): 38.0%

SMILES: CCn1cncc1C[C@H](NC(=O)C=Cc1ccccc1)C(=O)O [Compound 10, N(α)-3-phenylpropenoyl-N(π)-ethyl-L-histidine]
- Analgesic coefficient (SART stressed mouse [1]; [7]): 1.14
- Suppressive Rate (mice [2]; oral 10 mg/kg single dose): 27.7%

SMILES: CC=C(C)C(=O)N[C@@H](Cc1cncn1CC)C(=O)O [Compound 11, N(α)-2-methyl-2-butenoyl-N(π)-ethyl-L-histidine]
- Suppressive Rate (mice [2]; oral 10 mg/kg single dose): 36.1%

SMILES: C=CC(=O)N[C@@H](Cc1cncn1C(C)C)C(=O)O [Compound 13, N(α)-acryloyl-N(π)-isopropyl-L-histidine]
- Analgesic coefficient (SART stressed mouse [1]; [8]): 1.31

SMILES: Cc1ccc(C=CC(=O)N[C@@H](Cc2cncn2C)C(=O)O)cc1 [Compound 16, N(α)-3-(4-methylphenyl)acryloyl-N(π)-methyl-L-histidine]
- Suppressive Rate (mice [2]; oral 100 mg/kg single dose): 30.3%

SMILES: C=CC(=O)N[C@@H](Cc1cncn1Cc1ccccc1)C(=O)O [Compound 27, N(α)-acryloyl-N(π)-benzyl-L-histidine]
- 50% reaction threshold value, Test substance administration group, Before admin. (Chung model rat): 2.58 ± 0.26 g
- 50% reaction threshold value, Test substance administration group, After admin. for 30 minutes (Chung model rat; [9]): 7.32 ± 1.32* g
- Suppressive Rate (mice [2]; oral 10 mg/kg single dose): 37.9%

SMILES: C=C(C)C(=O)N[C@@H](Cc1cncn1C)C(=O)O [Compound 30, N(α)-methacryl-N(π)-methyl-L-histidine]
- 50% reaction threshold value, Test substance administration group, Before admin. (Chung model rat): 2.63 ± 0.23 g
- 50% reaction threshold value, Test substance administration group, After admin. for 30 minutes (Chung model rat; [9]): 4.30 ± 0.46* g

SMILES: NCCC(=O)N[C@@H](Cc1cnc[nH]1)C(=O)O [carnosine, β-ananyl-L-histidine, reference compound]
- analgesic action (in words) (SART stressed mouse [1]; administration into the lateral ventricle): no significant analgesic action
